These results are taken from patent US20250281495A1, “METHODS FOR INHIBITING INFLAMMATION AND PROGRESSION OF ATHEROSCLEROTIC PLAQUES AND CARDIOVASCULAR EVENTS IN PATIENTS WITH CEREBRO- AND CARDIO-VASCULAR DISEASE” (ICAHN SCHOOL OF MEDICINE AT MOUNT SINAI, priority 2021, published 2025).

Each structure is given as a SMILES string.

The test deals with kinase phosphorylation (pCREB, pp38, pMAPKA2P, pS6, pERK1/2) in PBMCs. The test can be described thus: CyTOF screening of candidate small molecules in healthy PBMCs stimulated with atherosclerotic plasma. In kind it is cell-based, human. The conditions noted are these: for reversal of the inflammatory signature activated by atherosclerotic plasma: CyTOF screening. As to the method: To test the efficacy of candidate small molecules in reversing immune response of PBMCs to atherosclerotic plasma, the inventors examined cell type-specific pharmacologic effects of selected candidate compounds. Using healthy PBMCs, the inventors assessed the activity of selected small molecules in the presence of atherosclerotic plasma stimulation that followed 30 minutes of pretreatment with each candidate compounds. Using CyTOF mass-cytometry, the inventors measured the specific inhibition of kinase phosphorylation (i.e., pCREB, pp38, pMAPKA2P, pS6, pERK1/2) in each cell type at the single cell level for each drug (FIGS. 8 and 9).

Where [1] appears, read: CD16+ monocytes and CD1c+ DC, atherosclerotic plasma.
Setting [2] is: CD14+ and CD16+ monocytes and CD1c+ DC (these cells).
Where [3] appears, read: CD14+ and CD16+ monocytes and CD1c+ DC, atherosclerotic plasma.

Turning to `CC[C@H](C)C(=O)O[C@H]1CCC=C2C=C[C@H](C)[C@H](CC[C@@H]3C[C@@H](O)CC(=O)O3)[C@H]21` [Mevastatin], the “reversal of the inflammatory signature activated by atherosclerotic plasma” value is reported as “did not fully reverse”. For the setting “CD1c+ DC, atherosclerotic plasma”, the p38 phosphorylation result was “inhibited”. Further, under setting [1], the ERK1/2 phosphorylation entry is listed as “inhibited”. In addition, the “phosphorylation of major kinases (e.g., CREB and S6) implicated in the inflammatory transcriptional reprogramming” value (atherosclerotic plasma) is reported as “did not affect”.

In the case of `CS(=O)(=O)O.Cn1cc(C2=C(c3cn(CCCSC(=N)N)c4ccccc34)C(=O)NC2=O)c2ccccc21` [Ro 31-8220 mesylate], the “reversal of the inflammatory signature activated by atherosclerotic plasma” value is listed as “reversed”. Moreover, under setting [2], the “ERK1/2 phosphorylation in response to atherosclerosis plasma” value was “not inhibited” and the “p38 phosphorylation in response to atherosclerosis plasma” value is on record as “not inhibited”. Further, under setting [3], the CREB phosphorylation entry is listed as “significant inhibition” and the S6 phosphorylation result is “significant inhibition”. Under setting [1], the MAPKA2P phosphorylation result is recorded as “significant inhibition”. Besides, for the setting “cell-specificity for monocytes and CD1c+ DC, 30 minutes of pretreatment”, the “inhibition of most specific kinase phosphorylation activated by atherosclerosis plasma” value was “significant inhibition”.
